# What was measured:
# Assay in all cases: Test B pre-/postemergence plant response
# Type in all cases: in vivo
# [1] = test system: goosegrass (Eleusine indica)
# From the text: (§1) Seeds of plant species selected from blackgrass (Alopecurus myosuroides), downy bromegrass (Bromus tectorum), green foxtail (Setaria viridis), Italian ryegrass (Lolium multiflorum), wheat (Triticum aestivum), wild oat (Avena fatua), catchweed bedstraw (Galium aparine), bermudagrass (Cynodon dactylon), surinam grass (Brachiaria decumbens), cocklebur (Xanthium strumarium), corn (Zea mays), large crabgrass (Digitaria sanguinalis), woolly cupgrass (Eriochloa villosa), giant foxtail (Setaria faberii), goosegrass (Eleusine indica), johnsongrass (Sorghum halepense), kochia (Kochia scoparia), lambsquarters (Chenopodium album), morningglory (Ipomoea coccinea), eastern black (E.B.) nightshade (Solanum ptycanthum), yellow nutsedge (Cyperus esculentus), pigweed (Amaranthus retroflexus), common ragweed (Ambrosia elation), Russian thistle (Salsola iberica), soybean (Glycine max), common (oilseed) sunflower (Helianthus annuus), and velvetleaf (Abutilon theophrasti) were planted and treated preemergence with test chemicals formulated in a non-phytotoxic solvent mixture which included a surfactant.
# (§2) At the same time, plants selected from these crop and weed species and also winter barley (Hordeum vulgare), canarygrass (Phalaris minor), chickweed (Stellaria media) and windgrass (Apera spica-venti) were treated with postemergence applications of some of the test chemicals formulated in the same manner. Plants ranged in height from 2 to 18 cm (1- to 4-leaf stage) for postemergence treatments.
# (§3) Plant species in the flooded paddy test consisted of rice (Oryza sativa), umbrella sedge (Cyperus difformis), ducksalad (Heteranthera limosa) and barnyardgrass (Echinochloa crus-galli) grown to the 2-leaf stage for testing. At time of treatment, test pots were flooded to 3 cm above the soil surface, treated by application of test compounds directly to the paddy water, and then maintained at that water depth for the duration of the test. Treated plants and controls were maintained in a greenhouse for 13 to 15 days, after which time all species were compared to controls and visually evaluated. Plant response ratings, summarized in Table B, are based on a scale of 0 to 100 where 0 is no effect and 100 is complete control. A dash (-) response means no test result.
# [2] = test system: lambsquarters (Chenopodium album)
# From the text: as §1, §2, §3
# [3] = test system: cocklebur (Xanthium strumarium); settings: for Cocklebur plant response rating: 8 g ai/ha
# From the text: as §1, §2, §3
# soybean (Glycine max) = test system: soybean (Glycine max)
# From the text: as §1, §2, §3
# [4] = test system: velvetleaf (Abutilon theophrasti)
# From the text: as §1, §2, §3
# [5] = test system: Russian thistle (Salsola iberica); settings: Preemergence; for Russian Thistle plant response rating: scale 0 to 100
# From the text: as §1, §2, §3
# [6] = test system: large crabgrass (Digitaria sanguinalis)
# From the text: as §1, §2, §3
# [7] = test system: bermudagrass (Cynodon dactylon); settings: for Bermudagrass plant response rating: 8 g ai/ha
# From the text: as §1, §2, §3
# [8] = test system: Italian ryegrass (Lolium multiflorum)
# From the text: as §1, §2, §3
# [9] = test system: common ragweed (Ambrosia elation)
# From the text: as §1, §2, §3
# [10] = 8 g ai/ha, postemergence, 0-100 scale
# [11] = 16 g ai/ha, postemergence, 0-100 scale
# [12] = Postemergence, 31 g ai/ha, scale 0 to 100
# [13] = Postemergence, 62 g ai/ha, scale 0 to 100, 0 no effect, 100 complete control
# [14] = Preemergence, 31 g ai/ha, scale 0 to 100 (0 no effect, 100 complete control)
# [15] = Preemergence, 62 g ai/ha, 0 to 100 scale, 0 no effect, 100 complete control
# [16] = Preemergence, 8 g ai/ha, scale 0 to 100
# [17] = Preemergence, 16 g ai/ha, scale 0 to 100
# [18] = Postemergence, 16 g ai/ha, scale 0 to 100
# [19] = Preemergence, 16 g ai/ha, scale 0 to 100 (0 no effect, 100 complete control)
smiles,measurement,setting,value
CCc1cc(-c2ccc(Br)cc2)nn1-c1c(O)c(C)nn(C)c1=O [Compound 74],Goosegrass plant response rating,[1]; [10],60
same,Goosegrass plant response rating,[1]; [11],65
same,"Plant response rating, Goosegrass",[1]; [12],75
same,"Plant response rating, Goosegrass",[1]; [13],85
same,"Plant response rating, Goosegrass",[1]; [14],100
same,"Plant response rating, Goosegrass",[1]; [15],100
same,Goosegrass plant response rating,[1]; [16],95
same,Goosegrass plant response rating,[1]; [17],98
same,Lambsquarters plant response rating,[2]; [10],0
same,Lambsquarters plant response rating,[2]; [11],0
same,"Plant response rating, Lambsquarters",[2]; [12],0
same,"Plant response rating, Lambsquarters",[2]; [13],0
same,"Plant response rating, Lambsquarters",[2]; [14],0
same,"Plant response rating, Lambsquarters",[2]; [15],20
same,Lambsquarters plant response rating,[2]; [16],0
same,Lambsquarters plant response rating,[2]; [17],0
same,Cocklebur plant response rating,"[3]; postemergence, 0-100 scale",0
same,"Plant response rating, Cocklebur",[3]; [18],0
same,"Plant response rating, Cocklebur",[3]; [12],0
same,"Plant response rating, Cocklebur",[3]; [13],0
same,"Plant response rating, Cocklebur",[3]; [19],0
same,"Plant response rating, Cocklebur",[3]; [14],0
same,"Plant response rating, Cocklebur",[3]; [15],0
same,Cocklebur plant response rating,"[3]; Preemergence, scale 0 to 100",0
same,Soybean plant response rating,soybean (Glycine max); [10],0
same,Soybean plant response rating,soybean (Glycine max); [11],0
same,"Plant response rating, Soybean",soybean (Glycine max); [12],0
same,"Plant response rating, Soybean",soybean (Glycine max); [13],0
same,"Plant response rating, Soybean",soybean (Glycine max); [14],0
same,"Plant response rating, Soybean",soybean (Glycine max); [15],0
same,Soybean plant response rating,soybean (Glycine max); [16],0
same,Soybean plant response rating,soybean (Glycine max); [17],0
same,Velvetleaf plant response rating,[4]; [10],0
same,Velvetleaf plant response rating,[4]; [11],0
same,"Plant response rating, Velvetleaf",[4]; [12],0
same,"Plant response rating, Velvetleaf",[4]; [13],0
same,"Plant response rating, Velvetleaf",[4]; [14],0
same,"Plant response rating, Velvetleaf",[4]; [15],0
same,Velvetleaf plant response rating,[4]; [16],0
same,Velvetleaf plant response rating,[4]; [17],0
same,"Plant response rating, Russian Thistle","[5]; 31 g ai/ha, scale 0 to 100 (0 no effect, 100 complete control)",0
same,"Plant response rating, Russian Thistle","[5]; 62 g ai/ha, 0 to 100 scale, 0 no effect, 100 complete control",0
same,Russian Thistle plant response rating,[5]; 8 g ai/ha,0
same,Russian Thistle plant response rating,[5]; 16 g ai/ha,0
same,"Crabgrass, Large plant response rating",[6]; [10],80
same,"Plant response rating, Crabgrass, Large",[6]; [18],90
same,"Plant response rating, Crabgrass, Large",[6]; [12],98
same,"Plant response rating, Crabgrass, Large",[6]; [13],100
same,"Plant response rating, Crabgrass, Large",[6]; [14],100
same,"Plant response rating, Crabgrass, Large",[6]; [15],100
same,"Crabgrass, Large plant response rating",[6]; [16],65
same,"Crabgrass, Large plant response rating",[6]; [17],95
same,Bermudagrass plant response rating,"[7]; postemergence, 0-100 scale",20
same,"Plant response rating, Bermudagrass",[7]; [18],85
same,"Plant response rating, Bermudagrass",[7]; [12],95
same,"Plant response rating, Bermudagrass",[7]; [13],98
same,Bermudagrass plant response rating,"[7]; Preemergence, scale 0 to 100 (0 no effect, 100 complete control)",100
same,"Plant response rating, Bermudagrass",[7]; [19],100
same,"Plant response rating, Bermudagrass",[7]; [14],100
same,"Plant response rating, Bermudagrass",[7]; [15],100
same,"Ryegrass, Italian plant response rating",[8]; [10],98
same,"Ryegrass, Italian plant response rating",[8]; [11],100
same,"Plant response rating, Ryegrass, Italian",[8]; [12],100
same,"Plant response rating, Ryegrass, Italian",[8]; [13],100
same,"Plant response rating, Ryegrass, Italian",[8]; [14],100
same,"Plant response rating, Ryegrass, Italian",[8]; [15],100
same,"Ryegrass, Italian plant response rating",[8]; [16],60
same,"Ryegrass, Italian plant response rating",[8]; [17],98
same,Ragweed plant response rating,[9]; [10],0
same,Ragweed plant response rating,[9]; [11],0
same,"Plant response rating, Ragweed",[9]; [12],0
same,"Plant response rating, Ragweed",[9]; [13],0
same,"Plant response rating, Ragweed",[9]; [14],0
same,"Plant response rating, Ragweed",[9]; [15],0
same,Ragweed plant response rating,[9]; [16],0
same,Ragweed plant response rating,[9]; [17],0

# Source: patent US20100267561A1, “HERBICIDAL PYRIDAZINONE DERIVATIVES” (priority 2007, published 2010)
